According to patent US20090263397A1, “Combination anti-cancer therapy” (priority 2007, published 2009):
“And” between values parts separate entries of the source, which are not always exact repeats. Identical values can stand only once. “Also recorded” adds a separate entry of the source.

How the values were obtained:
[1] = system: MDA-MB-231 cells; test: Caspase 3/7 Glo apoptosis assay, MDA-MB-231; type: cell-based, human; settings: 24 hours
Experimental: Apoptosis measurements were captured 24 hours after dosing, and apoptosis was assayed by measurement of caspase 3/7 activity. Measurement of apoptosis: Induction of apoptosis as measured by increased Caspase 3/7 activity was determined using the Caspase 3/7 Glo assay (Promega Corporation, Madison, Wis.). Cell lines were seeded at a density of 3000 cells per well in a 96-well plate. 24 hours after plating cells were dosed with varying concentrations of drug, either as a single agent or in combination. The signal for Caspase 3/7 Glo was determined 24 hours after dosing. The caspase 3/7 activity was normalized to cell number per well, using a parallel plate treated with Cell Titer Glo (Promega Corporation, Madison, Wis.). Signal for each well was normalized using the following formula: Caspase 3/7 Glo luminescence units/Cell Titer Glo fraction of DMSO control.

[2] = system: Erk; test: Western blotting of Erk phosphorylation, A673; settings: 24 hour; for MAPK (Erk) pathway activity / activation state, single agent: OSI-906 3 uM, Doxorubicin 500nM or 1 μM
[3] = system: IGF-1R; test: Proteome Profiler RTK capture array, pIGF-1R in A673; settings: for phosphorylation of IGF-1R, single agent: OSI-906 3 μM, Doxorubicin 500 nM, MAB391 10 ug/ml
Experimental: (§1) Effect of OSI-906 (3 μM), Doxorubicin (500 nM), the combination of OSI-906+ doxorubicin, MAB391 (10 ug/ml), and the combination of MAB391+ doxorubicin on the phosphorylation states for IR and IGF-1R. Phosphorylation of IR and IGF-1R was realized using the Proteome Profiler™ RTK capture Array (R & D Systems).
(§2) Proteome profiler arrays housing 42 different RTKs were purchased from R&D systems (Minneapolis, Minn.) and processed according to the manufacturer's protocol. RTKs included on the array include: HER1, HER2, HER3, HER4, FGFR1, FGFR2a, FGFR3, FGFR4, IR, IGF-1R, Ax1, Dtk, Mer, HGFR, MSPR, PDGFRα, PDGFRβ, SCFR, Flt-3, M-CSFR, c-Ret, ROR1, ROR2, Tie-1, Tie-2, TrkA, TrkB, TrkC, VEGFR1, VEGFR2, VEGFR3, MuSK, EphA1, EphA2, EphA3, EphA4, EphA6, EphA7, EphB1, EphB2, EphB4, EphB6. This array was used as an RTK capture assay for determining pIGF-1R levels.

[4] = system: Akt; test: Western blotting of Akt phosphorylation, A673; settings: 24 hour; for Akt pathway activity / activation state, single agent: OSI-906 3 uM, Doxorubicin 500nM or 1 μM
[5] = system: Akt phosphorylation (pAkt-S473); test: Western blotting of Akt phosphorylation, MDA-MB-231
[6] = system: IR; test: Proteome Profiler RTK capture array, pIR in A673; type: cell-based, human; settings: for phosphorylation of IR, single agent: OSI-906 3 μM, Doxorubicin 500 nM, MAB391 10 ug/ml
Experimental: as §1, §2

[7] = system: H460 tumor cells; test: Caspase 3/7 Glo apoptosis assay, H460; type: cell-based, human; settings: 24 hours
Experimental: (§3) The combination of varying concentrations of OSI-906 (30 nM-3 μM) with 3 nM Taxol on the induction of apoptosis at 24 hours post dosing (Caspase GlO™, Promega) was determined for a panel of 5 NSCLC tumor cell lines (H460, H292, H322, H358, and Calu6).
A. Effect of varying concentrations of OSI-906, alone or in the presence of 12 nM Taxol, on apoptosis for H460 tumor cells. Apoptosis was measured 24 hours after dosing and determined by caspase 3/7 activity (Caspase GlO™, Promega). […] The dotted line represents the theoretical expectation for additivity and was calculated using the Bliss model for additivity.
(§4) Measurement of apoptosis: Induction of apoptosis as measured by increased Caspase 3/7 activity was determined using the Caspase 3/7 Glo assay (Promega Corporation, Madison, Wis.). Cell lines were seeded at a density of 3000 cells per well in a 96-well plate. 24 hours after plating cells were dosed with varying concentrations of drug, either as a single agent or in combination. The signal for Caspase 3/7 Glo was determined 24 hours after dosing. The caspase 3/7 activity was normalized to cell number per well, using a parallel plate treated with Cell Titer Glo (Promega Corporation, Madison, Wis.). Signal for each well was normalized using the following formula: Caspase 3/7 Glo luminescence units/Cell Titer Glo fraction of DMSO control.

[8] = system: H460 tumor cells; test: Cell Titer Glo overall cell growth, H460; type: cell-based, human
Experimental: B. Effect of varying concentrations of taxol, alone or in the presence of 5 μM OSI-906 on overall cell growth. Overall cell growth was determined by the Cell Titer Glo™ assay (Promega) and measured 72 hours after dosing. The dotted line represents the theoretical expectation for additivity and was calculated using the Bliss model for additivity. Measurement of Cell Proliferation: Cell proliferation was determined using the Cell Titer Glo assay (Promega Corporation, Madison, Wis.). Tumor cells were seeded at a density of 3000 cells per well in a 96-well plate. 24 hours after plating cells were dosed with varying concentrations of drug, either as a single agent or in combination. Using parallel replicate plates, the signal for Cell Titer Glo was determined 24 hours after dosing.

[9] = system: H358 tumor cells; test: Caspase 3/7 Glo apoptosis assay, H358; type: cell-based, human; settings: Taxol 3 nM, 24 hours
Experimental: as §3
The effect of varying concentrations of OSI-906 (0, 0.3 nM, 1 μM, 3 μM, and 5 μM) on apoptosis in the presence or absence of Taxol (3 nM) for H292 and H358 NSCLC tumor cell lines. Apoptosis measurements were determined by measuring caspase 3/7 activity (Caspase GlO™, Promega) and were captured 24 hours after dosing.
as §4

[10] = system: SK-ES-1 tumor cells; test: Caspase 3/7 Glo apoptosis assay, SK-ES-1; type: cell-based, human; settings: in the presence of 1 μM doxorubicin, 24 hours
Experimental: Effect of varying concentrations of OSI-906 (0, 300 nM, 1 μM, 3 μM, or 5 μM) on the induction of apoptosis for SK-ES-1 tumor cells, in the presence or absence of 1 μM doxorubicin. Apoptosis was determined by measuring caspase 3/7 activity (Caspase GlO™, Promega), and measurements were captured 24 hours after dosing. Measurement of apoptosis: Induction of apoptosis as measured by increased Caspase 3/7 activity was determined using the Caspase 3/7 Glo assay (Promega Corporation, Madison, Wis.). Cell lines were seeded at a density of 3000 cells per well in a 96-well plate. 24 hours after plating cells were dosed with varying concentrations of drug, either as a single agent or in combination. The signal for Caspase 3/7 Glo was determined 24 hours after dosing. The caspase 3/7 activity was normalized to cell number per well, using a parallel plate treated with Cell Titer Glo (Promega Corporation, Madison, Wis.). Signal for each well was normalized using the following formula: Caspase 3/7 Glo luminescence units/Cell Titer Glo fraction of DMSO control.

[11] = system: SK-ES-1 tumor cells; test: Cell Titer Glo overall cell growth, SK-ES-1; type: cell-based, human
Experimental: Measurement of Cell Proliferation: Cell proliferation was determined using the Cell Titer Glo assay (Promega Corporation, Madison, Wis.). […] Using parallel replicate plates, the signal for Cell Titer Glo was determined 24 hours after dosing.

[12] = system: A673 tumor cells; test: Caspase 3/7 Glo apoptosis assay, A673; type: cell-based, human; settings: in the presence of doxorubicin (333 nM or 1 uM), listed as OSI-906
Experimental: FIG. 3: OSI-906 synergizes with doxorubicin to inhibit cell growth and survival in A673 ES (Ewing's Sarcoma) tumor cells. A. Effect of varying concentrations of doxorubicin, in the presence and absence of 5 μM OSI-906, on the proliferation of A673 tumor cells. Proliferation data were collected 48 hours after dosing and realized using the Cell Titer Glo™ assay (Promega). The dotted line in the plot represents the calculated theoretical expectation if the combination was additive in nature and was determined using the Bliss model for additivity. B. Effect of varying concentrations of OSI-906 (0, 300 nM, and 1 μM) on the induction of apoptosis for A673 tumor cells, in the presence or absence of 333 nM doxorubicin. Apoptosis was determined by measuring caspase 3/7 activity (Caspase GlO™, Promega), and measurements were captured 48 hours after dosing.
FIG. 5: OSI-906 has the potential to promote greater synergy with doxorubicin in ES tumor cells than neutralizing IGF-1R antibodies. Effect of varying concentrations of OSI-906 (0, 300 nM, 1 μM, and 3 μM) or the IGF-1R neutralizing antibody α-IR3 (10 ug/ml) on the induction of apoptosis for A673 tumor cells, in the presence or absence of 333 nM or 1 uM doxorubicin. Apoptosis was determined by measuring caspase 3/7 activity (Caspase GlO™, Promega), and measurements were captured 24 hours after dosing.

[13] = system: H322 tumor cells; test: Caspase 3/7 Glo apoptosis assay, H322; type: cell-based, human
Experimental: as §3
Measurement of apoptosis: Induction of apoptosis as measured by increased Caspase 3/7 activity was determined using the Caspase 3/7 Glo assay (Promega Corporation, Madison, Wis.). Cell lines were seeded at a density of 3000 cells per well in a 96-well plate. 24 hours after plating cells were dosed with varying concentrations of drug, either as a single agent or in combination. The signal for Caspase 3/7 Glo was determined 24 hours after dosing. The caspase 3/7 activity was normalized to cell number per well, using a parallel plate treated with Cell Titer Glo (Promega Corporation, Madison, Wis.). Signal for each well was normalized using the following formula: Caspase 3/7 Glo luminescence units/Cell Titer Glo fraction of DMSO control. All graphs were generated using PRISM® software (Graphpad Software, San Diego, Calif.).

[14] = system: A673 tumor cells; test: Cell Titer Glo overall cell growth, A673; type: cell-based, human; settings: 5 μM OSI-906, 48 hours, versus Bliss additivity
Experimental: A. Effect of varying concentrations of doxorubicin, in the presence and absence of 5 μM OSI-906, on the proliferation of A673 tumor cells. Proliferation data were collected 48 hours after dosing and realized using the Cell Titer Glo™ assay (Promega). The dotted line in the plot represents the calculated theoretical expectation if the combination was additive in nature and was determined using the Bliss model for additivity. […] Measurement of Cell Proliferation: Cell proliferation was determined using the Cell Titer Glo assay (Promega Corporation, Madison, Wis.). Tumor cells were seeded at a density of 3000 cells per well in a 96-well plate. 24 hours after plating cells were dosed with varying concentrations of drug, either as a single agent or in combination. Using parallel replicate plates, the signal for Cell Titer Glo was determined 24 hours after dosing.

[15] = system: H292 tumor cells; test: Caspase 3/7 Glo apoptosis assay, H292; type: cell-based, human; settings: OSI-906 30 nM-3 μM with 50 uM cisplatin, 24 hours, compared with single agents
Experimental: The combination of varying concentrations of OSI-906 (30 nM-3 μM) with 50 uM cisplatin on the induction of apoptosis at 24 hours post dosing (Caspase Glo, Promega) was determined for a panel of 5 NSCLC tumor cell lines (H460, H292, H322, H358, and Calu6). The fold induction in apoptosis greater than the sums achieved by the single agents is noted in the table.
as §4

[16] = system: MDA-1186 tumor cells; test: Caspase 3/7 Glo apoptosis assay, MDA-1186; type: cell-based, human
Experimental: The effect of varying concentrations of OSI-906 (0, 0.3 nM, 1 uM, 3 μM, and 5 μM) on apoptosis in the presence or absence of Taxol (10 nM) or cisplatin (50 μM) for the MDA-1186 SCCHN tumor cell line. Apoptosis measurements were determined by measuring caspase 3/7 activity (Caspase Glo, Promega) and were captured 24 and 48 hours after dosing.
as §4

[17] = system: Akt; test: Western blotting of Akt phosphorylation, H292; type: cell-based, human; settings: H292 in vitro; 30 nM paclitaxel; 2, 6, 24 hours
Experimental: H292 cells were treated with 30 nM paclitaxel (in the presence and absence of 3 μM OSI-906), and the phosphorylation state for Akt was determined by Western blotting.

[18] = system: IGF-1R; test: RTK capture array, pIGF-1R in H292 cells; type: cell-based, human
Experimental: Also shown is the effect of taxol (100 nM) on IGF-1R phosphorylation for H292 and H358 tumor cells. Phosphorylation was captured 24 hours after dosing with taxol and realized using the Proteome Profiler™ RTK capture Array (R & D Systems).
A. Effect of varying concentrations of taxol on pIGF-1R for H292 tumor cells. pIGF-1R was measured 24 hours after dosing and realized using the proteome profiler RTK capture array (R & D Systems).
A. H292 NSCLC tumor cells were treated with 30 nM paclitaxel for varying time points, alone or in the presence of 3 μM OSI-906. The phosphorylation of IGF-1R was determined by an RTK capture array, in duplicate (pIGF-1R=phosphorylated IGF-1R).
as §2

[19] = system: IGF-1R; test: RTK capture array, pIGF-1R in H358 cells; settings: taxol 100 nM, 24 hours
[20] = system: IGF-1R; test: In vivo pharmacodynamic study, pIGF-1R in H292 xenografts; settings: mice bearing H292 xenografts; 24 mg/kg paclitaxel; 24 hours
Experimental: B. Mice bearing H292 xenografts were treated with 24 mg/kg paclitaxel for 24 hours prior to harvesting tumors. Tumors were profiled for pIGF-1R levels using the RTK capture array, in duplicate. Four separate animals were used: Control (Ctrl) A1; Control (Ctrl) A2; Paclitaxel-treated A1; and Paclitaxel-treated A2.
Proteome profiler arrays housing 42 different RTKs were purchased from R&D systems (Minneapolis, Minn.) and processed according to the manufacturer's protocol. […] This array was used as an RTK capture assay for determining pIGF-1R levels.
Female athymic nude nu/nu CD-1 mice (6-8 wks, 22-29 g) were obtained from Charles River Laboratories (Wilmington, Mass.). Animals were allowed to acclimate for a minimum of one week prior to initiation of a study. Throughout the studies, animals were allowed sterile rodent chow and water ad libitum, and animals were maintained under specific pathogen free conditions.
NCI—H292 NSCLC tumor cells were harvested from cell culture flasks during exponential cell growth, washed twice with sterile PBS, counted and resuspended in PBS to a suitable concentration before s.c. implantation on the right flank of female nu/nu CD-1 mice. Tumors were established to 200+/−50 mm in size before randomization into treatment groups. Paclitaxel or cisplatin were administered at the indicated dose, and tumors from treated mice were harvested at 24 hours after dosing. […]

[21] = system: IGF-1R complex; test: phosphorylation of the IGF-1R complex in MDA-1186 (data not shown); type: cell-based, human

For `COc1cccc2c1C(=O)c1c(O)c3c(c(O)c1C2=O)C[C@@](O)(C(=O)CO)C[C@@H]3O[C@H]1C[C@H](N)[C@H](O)[C@H](C)O1` [doxorubicin, reference compound], the “induction in apoptosis (caspase 3/7 activity), single agent” value ([1]; doxorubicin alone) was “only a small induction in apoptosis”, the “MAPK (Erk) pathway activity / activation state, single agent” value [2] was “increase in the activation states for both Akt and Erk” and the “phosphorylation of IGF-1R, single agent” value [3] was “promotes an upregulation of the phosphorylation state for both IR and IGF-1R”. The “Akt pathway activity / activation state, single agent” value [4] was “increase in the activation states for both Akt and Erk”, the “Akt phosphorylation (pAkt-S473), single agent” value ([5]; 24 hours) was “promotes an increase in Akt phosphorylation” and the “phosphorylation of IR, single agent” value [6] was “promotes an upregulation of the phosphorylation state for both IR and IGF-1R”.
In the case of `CC1(O)CC(c2nc(-c3ccc4ccc(-c5ccccc5)nc4c3)c3c(N)nccn23)C1` (stereo not drawn) [Compound D, cis-3-[8-amino-1-(2-phenyl-quinolin-7-yl)-imidazo[1,5-a]pyrazin-3-yl]-1-methyl-cyclobutanol], the “induction in apoptosis (caspase 3/7 activity), combination” value ([1]; 1 μM doxorubicin and 0.3 μM compound D) is reported as “about 3 fold”, the “apoptosis, single agent” value ([7]; OSI-906 alone) is reported as “fails to promote apoptosis or significantly inhibit cell growth” and the “apoptosis, combination with taxol” value ([7]; in the presence of 12 nM Taxol, listed as OSI-906) is reported as “synergistic promotion of apoptosis and inhibition of cell survival; also recorded: increase the pro-apoptotic effects of doxorubicin”. For the same compound, the “overall cell growth, combination with taxol” value ([8]; 5 μM OSI-906 with taxol, 72 hours, versus Bliss additivity) was “greater than additive inhibition of overall cell growth”, the “overall cell growth, single agent” value ([8]; OSI-906 alone) was “fails to promote apoptosis or significantly inhibit cell growth” and the “synergy for the combination of OSI-906 and taxol (apoptosis)” value [9] was “observed for H292, but not H358”. For the same compound, the “Erk activation state, co-treatment with doxorubicin” value ([2]; OSI-906 3 uM plus doxorubicin) was “gain in activity can be inhibited upon co-treatment with OSI-906”, the “MAPK (Erk) pathway activity / activation state, single agent” value [2] was “achieves inhibition of both pathways” and the “apoptosis (caspase 3/7 activity), combination with doxorubicin” value [10] was “synergistic promotion of apoptosis”. For the same compound, the “overall cell growth, combination with doxorubicin” value [11] was “synergistic promotion of apoptosis and inhibition of overall cell growth”, the “phosphorylation of IGF-1R, single agent” value [3] was “achieves inhibition for both pIR and pIGF-1R” and the “phosphorylation of IGF-1R, combination with doxorubicin” value ([3]; with Doxorubicin 500 nM) was “blocked upon co-treatment with OSI-906”. For the same compound, the “apoptosis (caspase 3/7 activity), combination with doxorubicin” value [12] was “synergistic promotion of apoptosis; also recorded: synergistic increase in doxorubicin-mediated apoptosis; also recorded: extent of cooperativity appears to be greater at higher concentrations of OSI-906, i.e. 3 μM, than that achieved maximally by a-IR3; also recorded: synergistic induction of apoptosis”, the “apoptosis gain, combination with taxol” value ([13]; OSI-906 30 nM-3 μM with 3 nM Taxol, 24 hours) was over 2 fold and the “induction of apoptosis, combination with paclitaxel” value ([13]; paclitaxel and OSI-906) was “synergistic induction of apoptosis”. The “Akt activation state, co-treatment with doxorubicin” value ([4]; OSI-906 3 uM plus doxorubicin) was “gain in activity can be inhibited upon co-treatment with OSI-906”, the “Akt pathway activity / activation state, single agent” value [4] was “achieves inhibition of both pathways” and the “Akt phosphorylation (pAkt-S473), combination with doxorubicin” value ([5]; combination of doxorubicin and Compound D) was “efficacious at inhibiting the increase in Akt phosphorylation provoked by doxorubicin”. For the same compound, the “overall cell growth, combination with doxorubicin” value [14] was “synergistic promotion of apoptosis and inhibition of overall cell growth”, the “increase in apoptosis (apoptosis gain), combination with cisplatin” value [15] was > 3 fold and > 2 fold and the “phosphorylation of IR, single agent” value [6] was “achieves inhibition for both pIR and pIGF-1R”. For the same compound, the “phosphorylation of IR, combination with doxorubicin” value ([6]; with Doxorubicin 500 nM) was “blocked upon co-treatment with OSI-906”, the “apoptosis, single agent” value ([16]; OSI-906 alone) was “did not achieve significant apoptosis as a single agent” and the “apoptosis, combination with taxol” value ([16]; Taxol 10 nM, 24 and 48 hours, listed as OSI-906) was “promoted a dose dependent increase in apoptosis; also recorded: synergistic induction of apoptosis”.
`CC(=O)O[C@H]1C(=O)[C@@]2(C)[C@H]([C@H](OC(=O)c3ccccc3)[C@]3(O)C[C@H](OC(=O)[C@H](O)[C@@H](NC(=O)c4ccccc4)c4ccccc4)C(C)=C1C3(C)C)[C@]1(OC(C)=O)CO[C@@H]1C[C@@H]2O` [taxol, paclitaxel] was tested, and the pAkt over time [17] was “modest increase in the Akt survival pathway, however this pathway is further driven upon prolonged 6 hour exposure to paclitaxel”, the IGF-1R phosphorylation ([18]; H292, taxol 100 nM, 24 hours) was “promote an increase in IGF-1R phosphorylation” and the pIGF-1R over time ([18]; H292 in vitro, 30 nM paclitaxel, 2 and 6 hours) was “time-dependent increase in pIGF-1R”. The EC50 ([18]; Homo sapiens, NCI-H292, H292, 24 hours after dosing, read-out: EC50 for promoting phosphorylation of IGF-1R) was 10 nM, the IGF-1R phosphorylation [19] was “Only in H292 tumor cells did taxol promote an increase in IGF-1R phosphorylation” and the “pIGF-1R levels in tumors” value [20] was “upregulated”. The “phosphorylation of the IGF-1R complex” value [21] was “promote phosphorylation of the IGF-1R complex”.
